Source: patent US6921775B2, “Methods for modulating brain damage” (Children's Medical Center Corporation, priority 2001, dated 2005)

Test system: AMPA receptors in cerebral white matter
Assay: Intracerebral AMPA injection white matter injury
Format: in vivo
Procedure: The methods used in this example are described in Follett et al. (2000) J. Neurosci. 20:9235-9241, incorporated by reference herein.
NBQX attenuation of the selective white matter injury after hypoxia/ischemia implicated GluR-mediated toxicity as an important mechanism of injury in immature OLs. To confirm a relationship between the activation of AMPA receptors in cerebral white matter and the vulnerability to injury, AMPA was injected directly into immature white matter. […] Minimal to no injury was present in vehicle-injected controls (M K801 alone; n=7) at the same age (t test, p<0.001).
To determine whether AMPA toxicity was age dependent, lesion size after intracerebral AMPA injections at P4, P7, and P11 was compared.

Cc1o[nH]c(=O)c1CC(N)C(=O)O (centres unmarked) [AMPA]
white matter injury after intracerebral injection (P7 rat pups, 5 nmol of AMPA plus 5 nmol of MK-801, vs MK-801 alone p<0.001): produced white matter injury
white matter injury (pericallosal lesion size) after injection at P4 and P11 compared with P7 (intracerebral AMPA, one-way ANOVA p<0.001): significantly less white matter injury
